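Each compound was tested at five concentrations against cells in 96-well plates for 48 hours. TGI denotes the concentration required for complete inhibition of growth.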
How the values were obtained:
Assay in all cases: NCI tumour cell line growth inhibition, 48 h
COLO 205 colon = tested on: COLO 205 colon
EKVX NSCLC = tested on: EKVX NSCLC
KM20L2 colon = tested on: KM20L2 colon
LXFL 529 NSCLC = tested on: LXFL 529 NSCLC
NCI-H522 lung = tested on: NCI-H522 lung
OVCAR-3 ovarian = tested on: OVCAR-3 ovarian
RXF 393 renal = tested on: RXF 393 renal
SF-295 CNS = tested on: SF-295 CNS
SF-539 CNS = tested on: SF-539 CNS
SK-OV-3 ovarian = tested on: SK-OV-3 ovarian
SN12C renal = tested on: SN12C renal
SNB-75 CNS = tested on: SNB-75 CNS
TK-10 renal = tested on: TK-10 renal
A498 renal = tested on: A498 renal
LOX IMVI melanoma = tested on: LOX IMVI melanoma
OVCAR-5 ovarian = tested on: OVCAR-5 ovarian
SK-MEL-2 melanoma = tested on: SK-MEL-2 melanoma
SR leukemia = tested on: SR leukemia
UACC-257 melanoma = tested on: UACC-257 melanoma
UO-31 renal = tested on: UO-31 renal

Question: For `O=c1nc2sc3ccc4ccccc4c3n2[nH]c1=O`, which TGI (COLO 205 colon) is on record?
Answer: > 100 µM

Question: What about the TGI (EKVX NSCLC) of the same compound?
Answer: > 100 µM

Question: And the TGI (KM20L2 colon)?
Answer: 99 µM

Question: What about the TGI (LXFL 529 NSCLC) of the same compound?
Answer: > 100 µM

Question: And the TGI (NCI-H522 lung)?
Answer: > 100 µM

Question: What about the TGI (OVCAR-3 ovarian) of the same compound?
Answer: > 100 µM

Question: And the TGI (RXF 393 renal)?
Answer: 38.1 µM

Question: What about the TGI (SF-295 CNS) of the same compound?
Answer: > 100 µM

Question: And the TGI (SF-539 CNS)?
Answer: > 100 µM

Question: What about the TGI (SK-OV-3 ovarian) of the same compound?
Answer: > 100 µM

Question: What about the TGI (SN12C renal) of the same compound?
Answer: > 100 µM

Question: What about the TGI (SNB-75 CNS) of the same compound?
Answer: > 100 µM

Question: And the TGI (TK-10 renal)?
Answer: > 100 µM

Question: With `CCCCN=C1OCc2[nH][nH]c(=O)c21` as the compound, how does the TGI (A498 renal) read?
Answer: > 100 µM

Question: What about the TGI (COLO 205 colon) of the same compound?
Answer: > 100 µM

Question: And the TGI (EKVX NSCLC)?
Answer: > 100 µM

Question: What about the TGI (KM20L2 colon) of the same compound?
Answer: > 100 µM

Question: What about the TGI (LOX IMVI melanoma) of the same compound?
Answer: > 100 µM

Question: And the TGI (LXFL 529 NSCLC)?
Answer: > 100 µM

Question: And the TGI (NCI-H522 lung)?
Answer: > 100 µM

Question: And the TGI (OVCAR-5 ovarian)?
Answer: > 100 µM

Question: And the TGI (RXF 393 renal)?
Answer: > 100 µM

Question: And the TGI (SF-295 CNS)?
Answer: > 100 µM

Question: What about the TGI (SF-539 CNS) of the same compound?
Answer: > 100 µM

Question: And the TGI (SK-MEL-2 melanoma)?
Answer: > 100 µM

Question: What about the TGI (SK-OV-3 ovarian) of the same compound?
Answer: > 100 µM

Question: And the TGI (SN12C renal)?
Answer: > 100 µM

Question: What about the TGI (SNB-75 CNS) of the same compound?
Answer: > 100 µM

Question: What about the TGI (SR leukemia) of the same compound?
Answer: > 100 µM

Question: What about the TGI (TK-10 renal) of the same compound?
Answer: > 100 µM

Question: And the TGI (UACC-257 melanoma)?
Answer: > 100 µM

Question: What about the TGI (UO-31 renal) of the same compound?
Answer: > 100 µM

Question: Which results are given for `C[C@]12CC[C@@H]3c4ccc(OCCN5CCCC5)cc4CC[C@H]3[C@@H]1CCC2=O`?
Answer: TGI (A498 renal): > 100 µM; TGI (COLO 205 colon): 35.6 µM; TGI (EKVX NSCLC): 67.6 µM; TGI (LOX IMVI melanoma): 29.7 µM; TGI (OVCAR-3 ovarian): 68.8 µM; TGI (OVCAR-5 ovarian): 97.4 µM; TGI (RXF 393 renal): > 100 µM; TGI (SF-295 CNS): 43.2 µM; TGI (SK-MEL-2 melanoma): 35.1 µM; TGI (SK-OV-3 ovarian): > 100 µM; TGI (SR leukemia): > 100 µM; TGI (TK-10 renal): > 100 µM; TGI (UACC-257 melanoma): > 100 µM; TGI (UO-31 renal): 61.9 µM

Reference: PubChem BioAssay (NCI)
